Experimental findings from patent publication US8362008B2 (The University Of Edinburgh, priority 2007, dated 2013) are described below.

In assay [1] the target is T1, human 11β-HSD1 enzyme (Homo sapiens, UniProt P28845).
T1 construct: stably transfected with a construct containing the full-length gene coding for the human 11β-HSD1 enzyme; expressed in transfected cells; host or cells: HEK293 (HEK293/11β-HSD1 cells)
The experiment in a line: Cellular in vitro 11β-HSD1 enzyme inhibition assay (SPA, HEK293/11β-HSD1 cells). The assay is classed as cell-based. Summed up:
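Stably transfected HEK293 cells expressing full-length human 11β-HSD1 were plated 24 h, then incubated with compound 2 h at 37 °C; cortisol formed was quantified by SPA with anti-cortisol antibody. Percent inhibition used no-cell (minimum) and no-compound (maximum) wells; IC50 from four-parameter logistic fit.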

In assay [2] the target is T2, human 11β-HSD2 (Homo sapiens, UniProt P80365).
T2 construct: CHO cells stably transfected with the full-length gene coding for human 11β-HSD2 were used; expressed in transfected cells; host or cells: CHO
T2 sequence (P80365 1-405): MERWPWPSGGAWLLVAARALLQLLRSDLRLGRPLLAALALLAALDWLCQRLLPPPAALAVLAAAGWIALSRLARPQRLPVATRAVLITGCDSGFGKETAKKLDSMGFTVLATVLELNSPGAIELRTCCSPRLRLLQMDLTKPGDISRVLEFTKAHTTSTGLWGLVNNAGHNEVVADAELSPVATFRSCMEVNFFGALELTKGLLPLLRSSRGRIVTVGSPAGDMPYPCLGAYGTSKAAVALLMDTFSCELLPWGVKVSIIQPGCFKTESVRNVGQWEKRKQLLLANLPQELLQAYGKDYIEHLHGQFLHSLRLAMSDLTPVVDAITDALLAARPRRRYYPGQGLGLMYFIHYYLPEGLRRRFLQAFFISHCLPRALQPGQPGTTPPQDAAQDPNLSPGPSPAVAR
As to the kind of experiment: Cellular in vitro 11β-HSD2 enzyme inhibition assay (CHO cells, TLC/phosphoimager). The format is cell-based. The conditions noted are these: CHO cells stably transfected with human 11β-HSD2; Table 1. On the procedure: Cellular In Vitro 11β-HSD2 Enzyme Inhibition Assay
For measurement of inhibition of 11β-HSD2, CHO cells stably transfected with the full-length gene coding for human 11β-HSD2 were used. Assays were carried out in 96-well microplates containing 1×10^5 cells/well. Controls and compounds were plated as above, so that the final DMSO concentration in each well was 1%. To initiate the assay, 90 μL of a solution of HAMS F-12 medium containing 1% glutamine, 1% penicillin and streptomycin, and 22 nM tritiated cortisol was added to each well of the assay plate. The plate was then incubated in 5% CO2, 95% O2 at 37° C. for 16 hours.
The assay solutions were transferred to glass tubes and 20 μL ethyl acetate added to each tube. Each tube was vortexed thoroughly and the upper layer containing the tritiated steroid transferred to a fresh glass tube. The solvent was evaporated by placing the tubes in a heating block at 65° C. under a stream of Nitrogen gas. 20 μL ethanol was added to each of the dried samples and vortexed briefly. Each sample was applied to a silica TLC plate and the plate dried. The plate was placed vertically in a glass tank containing 92% chloroform:8% ethanol and the solvent allowed to rise up the plate. The plate was dried, placed in an imaging cassette, and overlayed with a tritium imaging plate for 1-2 days. The amount of enzyme inhibition in each sample was determined by measuring the intensity of the substrate and product spots using a phosphoimager.
IC50 values for inhibitors were determined as described for 11β-HSD1.

Setting [3] is: HEK293, less than or equal to 1000 nM (1 μM).
The mark [4] stands for this setting: HEK293, more than 1000 nM (1.0 μM) and less than or equal to 30 μM.

Where only a bound is given, the exact number is not on record here.

T1 sequence (P28845 whole entry): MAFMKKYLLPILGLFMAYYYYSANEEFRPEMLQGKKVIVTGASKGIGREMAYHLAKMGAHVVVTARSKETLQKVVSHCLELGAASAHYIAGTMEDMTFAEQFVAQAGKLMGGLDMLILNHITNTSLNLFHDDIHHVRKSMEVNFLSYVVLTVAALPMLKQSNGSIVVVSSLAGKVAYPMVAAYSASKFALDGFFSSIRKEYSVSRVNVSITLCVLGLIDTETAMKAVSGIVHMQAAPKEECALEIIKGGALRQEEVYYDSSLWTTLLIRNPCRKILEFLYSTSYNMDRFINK

For the molecule `CC(=O)N1CCC(c2cc(C(=O)N3CCC[C@@H]4CCCC[C@@H]43)cs2)C1` (relative stereo) [CC-111, cis-1-{3-[4-(Octahydro-quinoline-1-carbonyl)-thiophen-2-yl]-pyrrolidin-1-yl}ethanone], the IC50 was at most 1000 nM in assay [1] (setting [3]); 20 nM in assay [1] (HEK293 cells stably transfected with human 11β-HSD1, Table 1); above 10000 nM in assay [2].

In assay [1] (setting [3]), `Cn1cncc1C(=O)N1CCC(c2cc(C(=O)N3CCCC4CCCCC43)cs2)CC1` (stereo not drawn) [CC-084] gave an IC50 of at most 1000 nM.

`COCCCC(=O)N1CCC(c2cc(C(=O)N3CCCC4CCCCC43)cs2)CC1` (stereo not drawn) [CC-085]: the IC50 in assay [1] (setting [4]) fell in the range of 1000 to 30000 nM.

In the case of `CC(=O)N1CC=C(c2cc(C(=O)N3CCCC4CCCCC43)cs2)CC1` (stereo not drawn) [CC-086], the IC50 in assay [1] (setting [3]) is at most 1000 nM.

For `O=C(c1csc(C2CCN(CCS(=O)(=O)N3CCCC3)CC2)c1)N1CCCC2CCCCC21` (stereo not drawn) [CC-087], the IC50 in assay [1] (setting [4]) lay within 1000 to 30000 nM.

Regarding `COCCCN1CCC(c2cc(C(=O)N3CCCC4CCCCC43)cs2)CC1` (stereo not drawn) [CC-089], in assay [1] (setting [4]), the IC50 lay in the range of 1000 to 30000 nM.

As to `O=C(CO)N1CC=C(c2cc(C(=O)N3CCCC4CCCCC43)cs2)CC1` (stereo not drawn) [CC-090], in assay [1] (setting [3]), the IC50 was at most 1000 nM.

`CS(=O)(=O)NCCC(=O)N1CC=C(c2cc(C(=O)N3CCCC4CCCCC43)cs2)CC1` (stereo not drawn) [CC-091] yielded an IC50 in assay [1] (setting [3]) of at most 1000 nM.

`O=C(c1csc(C2CCN(S(=O)(=O)c3ccccc3)CC2)c1)N1CCCC2CCCCC21` (stereo not drawn) [CC-092] came in with an IC50 in assay [1] (setting [4]) of 1000 to 30000 nM.

`O=C(c1csc(C2CCN(S(=O)(=O)C3CC3)CC2)c1)N1CCCC2CCCCC21` (stereo not drawn) [CC-093] displayed an IC50 in assay [1] (setting [4]) of 1000 to 30000 nM.

Molecule `COC(=O)N1CCC(c2cc(C(=O)N3CCCC(C)(C)CC3)cs2)CC1` [CC-094] displayed an IC50 in assay [1] (setting [4]) of 1000 to 30000 nM.

In assay [1] (setting [4]), `CC1(C)CCCN(C(=O)c2csc(C3CCN(C(=O)c4ccno4)CC3)c2)CC1` [CC-095] displayed an IC50 of 1000 to 30000 nM.

In assay [1] (setting [4]), `CC1(C)CCCN(C(=O)c2csc(C3CCN(S(C)(=O)=O)CC3)c2)CC1` [CC-096] returned an IC50 of 1000 to 30000 nM.

The molecule `CC1(C)CCCN(C(=O)c2csc(C3CCN(C(=O)CCNS(C)(=O)=O)CC3)c2)CC1` [CC-097] yielded an IC50 in assay [1] (setting [3]) of at most 1000 nM.

In assay [1] (setting [4]), `CC(=O)N1CCC(c2cc(C(=O)N3CCCCC3c3ccccc3)cs2)CC1` (stereo not drawn) [CC-098] gave an IC50 of 1000 to 30000 nM.

Consider `O=C(C1CC1)N1CCC(c2cc(C(=O)N3CCCC4CCCCC43)cs2)CC1` (stereo not drawn) [CC-099], for which the IC50 in assay [1] (setting [3]) is at most 1000 nM.

Consider `CC(C)(C)C(=O)N1CCC(c2cc(C(=O)N3CCCC4CCCCC43)cs2)CC1` (stereo not drawn) [CC-100], for which the IC50 in assay [1] (setting [4]) lay in the range of 1000 to 30000 nM.

The molecule `O=C(CO)N1CCC(c2cc(C(=O)N3CCCCC3c3ccccc3)cs2)CC1` (stereo not drawn) [CC-102] gave an IC50 in assay [1] (setting [4]) of 1000 to 30000 nM.

Take `O=C(c1cccnc1)N1CCC(c2cc(C(=O)N3CCCC4CCCCC43)cs2)CC1` (stereo not drawn) [CC-103]: in assay [1] (setting [3]), the concentration for half-maximal inhibition (IC50) is at most 1000 nM.

For `CC(C)S(=O)(=O)N1CCC(c2cc(C(=O)N3CCCC4CCCCC43)cs2)CC1` (stereo not drawn) [CC-104], in assay [1] (setting [4]), the IC50 is 1000 to 30000 nM.

On to `CC(C)CS(=O)(=O)N1CCC(c2cc(C(=O)N3CCCC4CCCCC43)cs2)CC1` (stereo not drawn) [CC-105], for which, in assay [1] (setting [4]), the IC50 fell in the range of 1000 to 30000 nM.

`O=C(c1csc(C2CCNCC2)c1)N1CCCCCC1c1ccccc1` (stereo not drawn) [CC-107] yielded an IC50 in assay [1] (setting [4]) of 1000 to 30000 nM.

`NC(=O)CN1CCC(c2cc(C(=O)N3CCCC4CCCCC43)cs2)CC1` (stereo not drawn) [CC-108] came in with an IC50 in assay [1] (setting [3]) of at most 1000 nM.

In turn, `Cc1cc(C(=O)N2CCC(c3cc(C(=O)N4CCCC5CCCCC54)cs3)CC2)no1` (stereo not drawn) [CC-109] showed an IC50 in assay [1] (setting [4]) of 1000 to 30000 nM.

The molecule `O=C(c1ccccc1)N1CCC(c2cc(C(=O)N3CCCC4CCCCC43)cs2)CC1` (stereo not drawn) [CC-110] had an IC50 in assay [1] (setting [4]) of 1000 to 30000 nM.

Consider `O=C(c1csc(C2CCNCC2)c1)N1CCCCC1c1ccc(F)cc1` (stereo not drawn) [CC-112], for which the IC50 in assay [1] (setting [4]) lay within 1000 to 30000 nM.

Regarding `CC1(C)CCCN(C(=O)c2csc(C3CCN(C(=O)CO)CC3)c2)CC1` [CC-113], in assay [1] (setting [3]), the IC50 is at most 1000 nM.

`O=C(N1CCCC1)N1CCC(c2cc(C(=O)N3CCCC4CCCCC43)cs2)CC1` (stereo not drawn) [CC-116] returned an IC50 in assay [1] (setting [3]) of at most 1000 nM.

For the molecule `O=C(CCn1ccnc1)N1CCC(c2cc(C(=O)N3CCCC4CCCCC43)cs2)CC1` (stereo not drawn) [CC-117], the IC50 in assay [1] (setting [4]) is 1000 to 30000 nM.

As for `O=C(c1csc(C2CCN(c3ccccn3)CC2)c1)N1CCCC2CCCCC21` (stereo not drawn) [CC-120], the IC50 in assay [1] (setting [4]) is 1000 to 30000 nM.

As to `O=C(c1csc(C2=CCNCC2)c1)N1CCCCC1c1ccccc1` (stereo not drawn) [CC-123], in assay [1] (setting [3]), the IC50 was at most 1000 nM.
